Source: US6939850B2, “Altered human interleukin-1β convertase (ICE), NEDD-2, and C. elegans ced-3 polypeptides and uses therefor” (Massachusetts Institute of Technology, priority 1992, dated 2005)
Square brackets hold non-standard residues; d marks the D form. * marks the point of attachment. CH2Cl = ClC*

Legend:
lumbar motoneurons = experiment: Naturally occurring lumbar motoneuron cell death in vivo; set-up: species or system chick; settings: mean ±SD; for Pyknotic Lumbar Motoneurons on E8: 15 hours post treatment, single administration of 400 μg on E8; for Healthy Motoneurons (lumbar) on E9 / Pyknotic Motoneurons (lumbar) on E9: 24 hours post treatment
Experimental: In the first model, embryos were treated with a single dose of an ICE inhibitor or control protease inhibitor on embryonic day 8 (E8), the time of maximum naturally occurring motoneuron cell death (Hamburger et al., J. Morph. 88:49-92 (1951)). Embryos treated in vivo with the peptide inhibitors appeared to develop normally and there were no gross abnormalties. […] 24 hours after treatment there is a similar reduction in the number of pyknotic cells and a significant increase in the number of healthy motoneurons (Table 6B). […] The ability of ICE inhibitors to block the naturally occurring cell death of interdigital cells in the developing limb was also studied. These cells undergo PCD as a means of sculpting the digits in many vertebrates. When embryos were treated with either ICE inhibitor on embryonic days, E6 and E7, there was a substantial reduction in the number of pyknotic cells between the digits of the hindlimb (FIG. 14).
Peptides. Two peptide inhibitors of ICE, Acetyl-Tyr-Val-Ala-Asp-aldehyde (Ac-YVAD-CHO) and Acetyl-Tyr-Val-Ala-Asp-chloromethylketone (Ac-YVAD-CMK) and two control peptide inhibitors, Acetyl-Leu-Leu-Arg-aldehyde (Ac-LLR-CHO; Leupeptin) and n-tosyl-Lys-chloromethyl-ketone (Tos-Lys-CMK) were synthesized by Bachem Biosciences (King of Prussia, Pa.) and shown by thin layer chromatography and HPLC to be greater than 98% pure. […] Methods for administration of peptides to examine effects on naturally occurring motoneuron cell death in vivo. Although cell death of lumbar motoneurons occurs between E6 and E12, the peak period of death (i.e., the greatest number of pyknotic cells) occurs on E8 (Oppenheim et al., J Comp. Neurol. 177:87-112 (1978)). For these experiments, embryos were given a single administration of an agent on E8 0 hr and sacrificed 15 hours later. […] Ac-YVAD-CMK and Tos-Lys-CMK were administered in a solution of DMSO/BSA, whereas Ac-YVAD-CHO and leupeptin (Sigma) were in BSA alone. The solutions (50-100 μl) were dropped onto the highly vascularized chorioallantoic membrane through a window in the shell. The control groups included both DMSO and BSA or vehicle alone. Embryos were killed and staged by the Hamburger-Hamilton series (Hamburger and Hamilton, J. Morph. 88:49-92 (1951)). The thoraco-lumbar spinal cord was dissected, fixed in Camoys or Bouins fixative, processed for paraffin histology, serially sectioned (10-12 μm) and stained with either thionin or hematoxylin and eosin. Pyknotic motoneurons were identified based on criteria previously described (Chu-Wang and Oppenheim, J. Comp. Neurol. 177:33-58 (1978); Clarke and Oppenheim In Methods in Cell Biology Series; Cell Death; eds: Schwartz and Osborne. Academic Press. New York, N.Y. In press.) and were counted in every 10th or 20th section through the entire lumbar enlargement. The total number of pyknotic cells were then estimated by multiplying these values by 10 or 20. All cell counts were performed by individuals blinded with regard to drug treatment of the embryos. Methods for limb bud removal experiments. A unilateral limb bud removal was performed on E2 as described previously (Oppenheim et al., J. Comp. Neurol. 177:87-112 (1978)). Because induced cell death following limb removal begins on E5 (before that there is no difference in the number of motoneurons between the operated or unoperated sides) embryos were given one treatment of Ac-YVAD-CHO (40 μg) or BSA (control) at E5-0 hr and another at E5-12 hours (total peptide administered was 80 μg). Animals were killed at E6-0 hr. Methods were the same as described above except the section thickness was 6-8 μm (see Method for Administration of Peptides, above). Methods for limb bud interdigital regions. […]

cervical motoneurons = experiment: Cervical motoneuron cell death in vivo; set-up: species or system chick; settings: for Pyknotic Cervical Motoneurons on E4.5: mean ±SD
From the text: The ability of the ICE inhibitors to block cell death in two classes of neurons whose naturally occurring death appears to be independent of target interaction was also studied. First, motoneurons in the cervical spinal cord undergo PCD between E4 and E5, with maximum levels occurring at E4.5.

ICE = molecular target: T1, ICE (Homo sapiens, UniProt P29466); settings: protease activity of ICE; cited from earlier work
T1 sequence (P29466 120-297): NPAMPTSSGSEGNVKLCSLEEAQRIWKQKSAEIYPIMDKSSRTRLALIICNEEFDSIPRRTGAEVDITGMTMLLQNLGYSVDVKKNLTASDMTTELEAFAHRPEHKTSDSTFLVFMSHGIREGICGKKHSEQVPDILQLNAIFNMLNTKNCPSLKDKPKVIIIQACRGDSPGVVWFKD
T1 sequence (P29466 317-404): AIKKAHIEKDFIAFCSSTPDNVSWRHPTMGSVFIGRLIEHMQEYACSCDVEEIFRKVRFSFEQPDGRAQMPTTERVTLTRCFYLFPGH

[1] = system: undifferentiated neurons and precursor cells in the neural tube; experiment: Cell death in the early neural tube in vivo; set-up: species or system chick
chick spinal motoneurons = experiment: Motoneuron culture deprived of muscle extract, survival; type: cell-based; settings: without muscle extract, treated between 14 and 24 hours, counted after 3 days
From the text: A tissue culture model system that allows isolation of a relatively pure population of motoneurons whose survival is dependent on muscle extract, a potent source of target-derived trophic support, was used to test the ability of peptide inhibitors of ICE to block motoneuron cell death (Milligan et al., J Neurobiology 25:1005-1016 (1994) and Block-Gallego et al., Development. 111:221-232 (1991)). The death of motoneurons deprived of trophic support in vitro requires new gene expression and occurs by apoptosis (Milligan et al., J. Neurobiology 25:1005-1016 (1994)). Motoneurons deprived of trophic support at the time of plating become irreversibly committed to undergo cell death after 16-18 hours (Milligan et al., J. Neurobiology 25:1005-1016 (1994)). […] When motoneurons are treated with peptide inhibitors in the absence of muscle extract for three days and subsequently supplemented on day three with muscle extract, they continue to survive, and by six days appear as healthy and differentiated as the motoneurons that were continuously supplied with muscle extract (FIGS. 12A, 12B, 15G). Thus, motoneurons rescued for 3 days by ICE inhibitors remain capable of responding to trophic factors present in muscle extract.
Methods for motoneuron cultures. […]

| Compound | Pyknotic Lumbar Motoneurons on E8 (lumbar motoneurons) | Healthy Motoneurons (lumbar) on E9 (lumbar motoneurons) | Pyknotic Motoneurons (lumbar) on E9 (lumbar motoneurons) | Pyknotic Cervical Motoneurons on E4.5 (cervical motoneurons) | Ki (ICE) | survival promoting effects on floorplate or dorsal spinal cord cells ([1]; compared to control animals) | Pyknotic Cells in the Early Neural Tube, Dorsal Spinal Cord ([1]; mean ±SD) | Pyknotic Cells in the Early Neural Tube, Floor Plate ([1]; mean ±SD) | motoneuron death (chick spinal motoneurons) | survival promoting effects on cervical motoneurons (cervical motoneurons; compared to control or Ac-LLR-CHO treated animals) |
| --- | --- | --- | --- | --- | --- | --- | --- | --- | --- | --- |
| CC(=O)N[C@@H](CC(C)C)C(=O)N[C@@H](CC(C)C)C(=O)N[C@H](C=O)CCCNC(=N)N [Leupeptin, Acetyl-Leu-Leu-Arg-aldehyde] | 310 ± 40 | 14,117 ± 971 | 297 ± 51 | 32.5 ± 7.9 | – | – | – | – | – | – |
| Cc1ccc(S(=O)(=O)NC(CCCCN)C(=O)CCl)cc1 (stereo not drawn) [Tos-Lys-CMK, n-tosyl-Lys-chloromethyl-ketone] | 285 ± 31 | 13,257 ± 773 | 345 ± 39 | – | – | – | – | – | – | – |
| Ac-Tyr-Val-Lys-Asp-CHO (Ac-YVKD-aldehyde; SMILES CC(=O)N[C@@H](Cc1ccc(O)cc1)C(=O)N[C@H](C(=O)N[C@@H](CCCCN)C(=O)N[C@H](C=O)CC(=O)O)C(C)C) [Inhibitor D] | – | – | – | – | 0.003 µM | – | – | – | – | – |
| Ac-Y[dA]AD-aldehyde [Inhibitor C] | – | – | – | – | 1.5 µM | – | – | – | – | – |
| Acetyl-Tyr-Val-Ala-Asp-chloromethylketone (Ac-YVAD-CH2Cl) [Ac-YVAD-CMK] | 216 ± 27 | 16,231 ± 755 | 200 ± 33 | 26.7 ± 2.2 | – | no survival promoting effects | 1.372 ± 0.235 | 0.872 ± 0.201 | inhibitory effects on motoneuron death | no survival promoting effects |
